What was measured:
[1] = test system: poly rA—poly rU; prAprU (RNA, polymer) A/U; test: fluorimetric titration, Scatchard (McGhee-von Hippel) fit; settings: Na+ (sodium cacodylate, I = 0.05 M); pH 7.0, 25 °C; n fixed 0.2; polynucleotide concentration as phosphates; per base
[2] = test system: poly rA—poly rU; prAprU (RNA, polymer) A/U; test: UV thermal denaturation at 260 nm; settings: Na+ (sodium cacodylate, I = 0.05 M); pH 7.0; r = [compound]/[polynucleotide] = 0.1; error ±0.5 °C; per base
[3] = test system: poly dAdT—poly dAdT; p(dAdT)2 (DNA, polymer) AT; test: fluorimetric titration, Scatchard (McGhee-von Hippel) fit; settings: Na+ (sodium cacodylate, I = 0.05 M); pH 7.0, 25 °C; n fixed 0.2; polynucleotide concentration as phosphates; per base
[4] = test system: poly dGdC—poly dGdC; p(dGdC)2 (DNA, polymer) GC; test: as above; settings: Na+ (sodium cacodylate, I = 0.05 M); pH 7.0, 25 °C; n fixed 0.2; polynucleotide concentration as phosphates; per base
[5] = test system: poly dAdT—poly dAdT; p(dAdT)2 (DNA, polymer) AT; test: UV thermal denaturation at 260 nm; settings: Na+ (sodium cacodylate, I = 0.05 M); pH 7.0; r = [compound]/[polynucleotide] = 0.1; error ±0.5 °C; per base
[6] = test system: poly rA—poly rU; prAprU (RNA, polymer) A/U; test: UV/vis titration, Scatchard (McGhee-von Hippel) fit; settings: Na+ (sodium cacodylate, I = 0.05 M); pH 7.0, 25 °C; n fixed 0.2; polynucleotide concentration as phosphates; per base
[7] = test system: poly dAdT—poly dAdT; p(dAdT)2 (DNA, polymer) AT; test: as above; settings: Na+ (sodium cacodylate, I = 0.05 M); pH 7.0, 25 °C; n fixed 0.2; polynucleotide concentration as phosphates; per base
[8] = test system: poly dGdC—poly dGdC; p(dGdC)2 (DNA, polymer) GC; test: as above; settings: Na+ (sodium cacodylate, I = 0.05 M); pH 7.0, 25 °C; n fixed 0.2; polynucleotide concentration as phosphates; per base

SMILES | logKs [1] | ΔTm [2] [°C] | logKs [3] | logKs [4] | ΔTm [5] [°C] | logKs [6] | logKs [7] | logKs [8]
Cc1cc(-c2cc3ccc4cc(-c5cc(C)c(B(c6c(C)cc([N+](C)(C)C)cc6C)c6c(C)cc([N+](C)(C)C)cc6C)c(C)c5)cc5ccc(c2)c3c45)cc(C)c1B(c1c(C)cc([N+](C)(C)C)cc1C)c1c(C)cc([N+](C)(C)C)cc1C | 7.4 | 7.4 | 8.7 | 8.0 | 9.6 |  |  | 
Cc1cc(-c2ccc(-c3ccc(-c4cc(C)c(B(c5c(C)cc([N+](C)(C)C)cc5C)c5c(C)cc([N+](C)(C)C)cc5C)c(C)c4)cc3)cc2)cc(C)c1B(c1c(C)cc([N+](C)(C)C)cc1C)c1c(C)cc([N+](C)(C)C)cc1C |  | 12.1 |  |  | 6.7 | 7.5 | 6.1 | 6.0
Cc1cc(-c2ccc3c(c2)Cc2cc(-c4cc(C)c(B(c5c(C)cc([N+](C)(C)C)cc5C)c5c(C)cc([N+](C)(C)C)cc5C)c(C)c4)ccc2-3)cc(C)c1B(c1c(C)cc([N+](C)(C)C)cc1C)c1c(C)cc([N+](C)(C)C)cc1C | 7.9 | 9.3 | 6.9 | 7.4 | 8.2 |  |  | 

— article PMC10254923 (2023)
